The text below walks through data of patent publication US4816487A, “1-(2-hydroxyaryl)-alkane-1-on-oximes-procedure of preparation and use in pharmaceuticals” (Humboldt-Universitaet zu Berlin, priority 1985, dated 1989).

Assay [1] has as its target T1, lipoxygenase from rabbit reticulocytes (Oryctolagus cuniculus, UniProt P12530).
T1 construct: Lipoxygenase from rabbit reticulocytes was obtained in electrophoretically and immunologically pure form; from tissue; host or cells: rabbit reticulocytes
T1 sequence (P12530 1-663): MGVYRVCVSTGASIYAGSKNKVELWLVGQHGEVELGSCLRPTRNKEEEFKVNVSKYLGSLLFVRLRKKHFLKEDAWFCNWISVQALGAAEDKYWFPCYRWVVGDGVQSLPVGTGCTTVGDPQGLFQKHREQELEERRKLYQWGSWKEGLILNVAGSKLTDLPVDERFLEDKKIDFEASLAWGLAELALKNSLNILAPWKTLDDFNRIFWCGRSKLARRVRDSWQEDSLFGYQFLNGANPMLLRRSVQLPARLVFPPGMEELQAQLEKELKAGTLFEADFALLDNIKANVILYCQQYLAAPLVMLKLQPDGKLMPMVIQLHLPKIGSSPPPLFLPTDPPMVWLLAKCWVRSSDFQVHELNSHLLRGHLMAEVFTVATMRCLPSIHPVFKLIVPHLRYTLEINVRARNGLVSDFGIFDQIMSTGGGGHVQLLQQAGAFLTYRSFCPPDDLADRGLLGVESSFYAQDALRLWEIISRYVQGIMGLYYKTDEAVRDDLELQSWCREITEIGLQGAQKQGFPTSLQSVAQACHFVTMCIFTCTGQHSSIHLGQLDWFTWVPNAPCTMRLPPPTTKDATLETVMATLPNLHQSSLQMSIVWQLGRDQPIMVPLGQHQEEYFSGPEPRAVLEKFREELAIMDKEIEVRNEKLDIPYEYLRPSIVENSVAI
In words: inhibition of activity of lipoxygenase from rabbit reticulocytes. Type of assay: biochemical. The conditions noted are these: for inhibition of rabbit reticulocyte lipoxygenase by known lipoxygenase inhibitors: concentration not given; for IC50: Table 3, in parentheses, read-out: I50-value, lipoxygenase from reticulocytes; for inhibition at 1000 µM: ultimate concentration 1.0 mM; for effect on reticulocyte lipoxygenase: ultimate concentration 1 mM. Here is the method: (§1) Persuasive evidence to inhibition of lipoxygenase was produced by a suitable animal lipoxygenase which had been isolated from rabbit reticulocytes, using a method by Rapoport and coworkers /S. M. Rapoport et al., Eur. J. Biochem. 96, 545 (1979)/. A final concentration of 1 mM of most of the compounds, according to this invention, produced inhibition of 90 percent or more (cf. Example 20). Significant inhibition was even recordable from a final concentration of 0.1 mM of some of the compounds, according to this invention. Substance concentrations were varied to determine the titration curves of inhibition and from these the half-inhibition concentrations (I50 -values). A half-inhibition concentration of 7 μM was established for 5-methyl-2-hydroxy-laurophenone-oxime, an oxime of high anti-asthmatic effectiveness.
Inhibition of activity of lipoxygenase from rabbit reticulocytes:
(§2) Lipoxygenase from rabbit reticulocytes was obtained in electrophoretically and immunologically pure form by means of the method described in the literature /S. M. Rapoport et al., Eur. J. Biochem. 96, 545 (1979)/. Lipoxygenase activity was determined at 25° C. by amperometric measurement of oxygen consumption by means of a Clark electrode in the following system: 0.1M potassium phosphate, pH 7.4, with 0.2-per-cent sodium cholate and 0.53 mM linoleic acid. The enzyme concentration was […] in the sample for measurement. The substances submitted for testing were dissolved in methyl glycol (fresh distillation in vacuum) and pre-incubated ten minutes with the enzyme at measurement temperature and in the absence of sodium cholate and linoleic acid. […] No remarkable inhibition occurred to control samples under these conditions. Enzyme reaction was started by addition of sodium cholate and linoleic acid. The titration curve of inhibition and, consequently, the concentrations required for inhibition by the order of 50 per cent were determined by variation of active substance concentrations. For comparison, the compounds were tested also on commercial lipoxygenase-1 from soybean.

The target of assay [2] is T2, lipoxygenase-1 from soybean (Glycine max, UniProt P08170).
T2 construct: purchased
T2 sequence (P08170 1-839): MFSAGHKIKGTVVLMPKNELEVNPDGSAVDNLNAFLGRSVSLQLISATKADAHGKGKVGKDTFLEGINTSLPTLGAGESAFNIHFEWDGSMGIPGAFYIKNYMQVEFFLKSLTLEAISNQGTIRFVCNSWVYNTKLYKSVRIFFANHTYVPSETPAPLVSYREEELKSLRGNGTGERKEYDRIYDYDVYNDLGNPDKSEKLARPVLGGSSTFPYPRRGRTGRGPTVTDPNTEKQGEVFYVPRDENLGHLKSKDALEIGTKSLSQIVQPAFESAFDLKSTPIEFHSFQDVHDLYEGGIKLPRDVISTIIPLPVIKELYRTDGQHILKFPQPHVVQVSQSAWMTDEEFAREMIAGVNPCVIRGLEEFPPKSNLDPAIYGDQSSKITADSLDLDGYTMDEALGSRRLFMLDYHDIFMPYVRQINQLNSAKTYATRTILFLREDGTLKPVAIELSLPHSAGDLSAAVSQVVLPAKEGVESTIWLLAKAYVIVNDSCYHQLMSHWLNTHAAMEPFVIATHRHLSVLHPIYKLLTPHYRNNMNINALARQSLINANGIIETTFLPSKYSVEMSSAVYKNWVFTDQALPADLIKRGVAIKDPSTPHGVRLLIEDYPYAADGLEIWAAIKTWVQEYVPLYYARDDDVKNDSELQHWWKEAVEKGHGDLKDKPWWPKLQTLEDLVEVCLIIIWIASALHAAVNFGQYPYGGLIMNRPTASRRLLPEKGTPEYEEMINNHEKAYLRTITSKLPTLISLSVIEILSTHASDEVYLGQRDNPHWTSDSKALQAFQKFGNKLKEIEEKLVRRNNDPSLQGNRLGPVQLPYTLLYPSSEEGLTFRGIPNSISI
In words: inhibition of soybean lipoxygenase-1. Type of assay: biochemical. The conditions noted are these: read-out: Inhibition (percent) of lipoxygenase from soybean; for inhibition at 1000 µM: ultimate concentration 1.0 mM. Here is the method: as §1, §2

Assay [3] relates to thrombocyte aggregation. In words: inhibition of thrombocyte aggregation induced by arachidonic acid or platelet activation factor. The assay is classed as cell-based, man. Here is the method: Since inhibition of lipoxygenase was identified as molecular point of attack of these new medicaments, studies were conducted also into their action upon thrombocyte aggregation. The substantive role played by the lipoxygenase route in the irreversibility of thrombocyte aggregation is well established at present/C. E. Dutilh et al., Prostaglandins and Medicine 6, 111 (1981)/. A key role in the pathogenesis of thrombotic diseases is attributed to irreversibility of thrombocyte aggregation. […] In the experiments conducted for this invention, thrombocyte aggregation was triggered off either by arachidonic acid or by the platelet activation factor (PAF-acether).
Inhibition of thrombocyte aggregation induced by arachidonic acid or the platelet activation factor:
The compounds were tested for antithrombotic and thrombolytic activity in vitro on the authentic cell system of man. High-thrombocyte plasma was obtained from the blood of clinically healthy donors by 1000×g centrifugation. Thrombocyte aggregation was measured by means of an aggregometer on the basis of diffuse scatter of light or absorption of light by resulting cell aggregates. The high-thrombocyte plasma was pre-incubated with the active substances at 37° C. for three minutes. Thrombocyte aggregation was then triggered off by alternative addition of 0.8 mM of arachidonic acid or 1 μM of platelet activation factor (PAF acether). […]

Assay [4] has as its system sensitised guinea pig. The conditions noted are these: cited: C. Armour and D. M. Temple, Agents Action 12, 285 (1982); cited from earlier work.
Setting [5] is: read-out: Inhibition (percent) of lipoxygenase from reticulocytes.

For orientation: inhibition means the relative decrease from the control value, in per cent.

`COc1ccc(O)c(C(C)(C)C)c1` [3-tert.-butyl-4-hydroxy-anisol, reference compound]: the “inhibition of rabbit reticulocyte lipoxygenase by known lipoxygenase inhibitors” value (“inhibition … by known lipoxygenase inhibitors” for short) in assay [1] is “inhibited with high effectiveness”.
`CCCCCCCCCCCCCCCCOc1ccc(C(C)=NO)c(O)c1` [4-hexadecyloxy-2-hydroxy-acetophenone-oxime]: the IC50 in assay [1] is 500 µM. In addition, the inhibition at 500 µM in assay [1] (ultimate concentration 0.5 mM, read-out: Inhibition (percent) of lipoxygenase from reticulocytes) was found to be 75%; in assay [2] (ultimate concentration 0.5 mM) it was 38%.
For the molecule `CCCCCCOc1ccc(C(C)=NO)c(O)c1` [4-hexyloxy-2-hydroxy-acetophenone-oxime], the IC50 in assay [1] stood at 260 µM. The inhibition at 1000 µM stood at 100% in assay [1] (setting [5]) and 68% in assay [2]. For the same molecule, the “retardation of thrombocyte aggregation” value in assay [3] (44 μM) was “retarded aggregation by about two minutes”. Besides, the “inhibition of thrombocyte aggregation” value in assay [3] (60 μM) is listed as “total inhibition”.
Turning to `O=[N+]([O-])c1ccc(O)c(O)c1` [4-nitrocatechol, reference compound], in assay [1], the “inhibition … by known lipoxygenase inhibitors” value was “inhibited with high effectiveness”.
Still for that read-out and setting: the same measure for `CCCCCC#CCC#CCC#CCC#CCCCC(=O)O` [5,8,11,14-eicosa-tetraynoic acid, reference compound]: “inhibited with high effectiveness”.
The same measure, in the same setting: the same measure for `CCCCCCCCC#CCC#CCC#CCCCC(=O)O` [5,8,11-eicosatriynoic acid, reference compound]: “inhibited with high effectiveness”.
On to `CCCCCC(=NO)c1cc(Cl)ccc1O` [5-chloro-2-hydroxy-caprophenone-oxime], for which the IC50 in assay [1] was 300 µM. The figures for the inhibition at 1000 µM in assay [1] (setting [5]) and in assay [2] were 90% and 24%, respectively.
For the molecule `O=C(O)c1cc(=O)c2c(OCC(O)COc3cccc4oc(C(=O)O)cc(=O)c34)cccc2o1` [disodium-cromoglycate, reference compound], the “effect on reticulocyte lipoxygenase” value in assay [1] was “failed to have an effect”. The “comparable anti-asthmatic, anti-allergic, and anti-anaphylactic effects on a whole-animal model” value in assay [4] was “have not even been known”.
On to `CN1CCC(=C2c3ccccc3CC(=O)c3sccc32)CC1` [ketotifen, reference compound], for which the “effect on reticulocyte lipoxygenase” value in assay [1] is on record as “failed to have an effect”. Further, the “comparable anti-asthmatic, anti-allergic, and anti-anaphylactic effects on a whole-animal model” value in assay [4] is reported as “have not even been known”.
Regarding `CC(Cc1ccc(O)c(O)c1)C(C)Cc1ccc(O)c(O)c1` (centres unmarked) [nordihydroguaiaretic acid, reference compound], in assay [1], the “inhibition … by known lipoxygenase inhibitors” value was “inhibited with high effectiveness”.
